These results are taken from ChEMBL document CHEMBL3132839, “Discovery of BET bromodomain inhibitors and their role in target validation” (Medchemcomm, 2014).

The experiment deals with Bromodomain-containing protein 4 (Homo sapiens, UniProt O60885). As to the kind of experiment: Inhibition of BRD4(1) (unknown origin) by Alpha screen binding assay. A general note: Alpha assays give light when donor and acceptor beads are brought close together.

SMILES strings stand for the structures.

By IC50 is commonly meant the midpoint of a concentration-inhibition curve. Read a low IC50 as inhibition by little substance. As for `CNC(=O)[C@H](CCCCNC(C)=O)NC`, the IC50 came out at 7 mM.
For `C[S+](C)[O-]` [DIMETHYL SULFOXIDE] the value was 280 mM.
